Values after ≈ are worked out from the molar mass of the structure shown.
Each molecule was assayed on Helicobacter pylori (assay: Antimicrobial activity against Helicobacter pylori DSMZ 4867).
Assay type: functional

Row | MIC | SMILES
1 | 1.25 µg/mL (≈ 1.67 µM) | CC[C@H]1OC(=O)[C@H](C)[C@@H](O[C@H]2C[C@@](C)(OC)[C@@H](O)[C@H](C)O2)[C@H](C)[C@@H](O[C@@H]2O[C@H](C)C[C@H](N(C)C)[C@H]2O)[C@](C)(OC)C[C@@H](C)C(=O)[C@H](C)[C@@H](O)[C@]1(C)O [CLARITHROMYCIN]
2 | > 200 µg/mL | COc1cc(C(=O)O)ccc1OC/C=C(\C)CCC=C(C)C
3 | 0.781 µg/mL (≈ 2.14 µM) | CC1(C)S[C@@H]2[C@H](NC(=O)[C@H](N)c3ccc(O)cc3)C(=O)N2[C@H]1C(=O)O [AMOXICILLIN]
4 | 50 µg/mL (≈ 212 µM) | COc1cc(C(=O)O)ccc1OCC=C(C)C
5 | > 200 µg/mL | CC(C)=CCC/C(C)=C/COc1ccc(/C=C/C(=O)O)cc1
6 | 4 µg/mL (≈ 9 µM) | CN(C)[C@@H]1C(O)=C(C(N)=O)C(=O)[C@@]2(O)C(O)=C3C(=O)c4c(O)cccc4[C@@](C)(O)[C@H]3C[C@@H]12 [TETRACYCLINE]
7 | > 200 µg/mL | Cc1ncc([N+](=O)[O-])n1CCO [METRONIDAZOLE]
8 | 100 µg/mL (≈ 485 µM) | CC(C)=CCOc1ccc(C(=O)O)cc1 [VALENCIC ACID]
9 | 50 µg/mL (≈ 168 µM) | CC(C)=CCC/C(C)=C/COc1ccc2ccc(=O)oc2c1 [AURAPTENE]
10 | 1.62 µg/mL (≈ 6.18 µM) | COc1cc(/C=C/C(=O)O)ccc1OCC=C(C)C [BOROPINIC ACID]
11 | > 200 µg/mL | COc1cc(/C=C/C(=O)O)ccc1OC/C=C(\C)CCC=C(C)C

— ChEMBL document CHEMBL1139707, “In vitro inhibitory activity of boropinic acid against Helicobacter pylori” (2006)
